Common to all, as to assay: biochemical
One assay concerns the target T1, NQO2A (Homo sapiens, UniProt P16083).
T1 sequence (P16083 1-231): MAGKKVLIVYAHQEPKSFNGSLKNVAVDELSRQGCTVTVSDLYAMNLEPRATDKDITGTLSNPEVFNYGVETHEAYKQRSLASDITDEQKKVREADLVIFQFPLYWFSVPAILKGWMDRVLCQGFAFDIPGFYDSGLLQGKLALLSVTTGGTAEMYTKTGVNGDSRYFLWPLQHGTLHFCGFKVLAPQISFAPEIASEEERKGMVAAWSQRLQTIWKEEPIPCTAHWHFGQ

The next assay concerns the target T2, DRAK1 (Homo sapiens, UniProt Q9UEE5).
T2 sequence (Q9UEE5 1-414): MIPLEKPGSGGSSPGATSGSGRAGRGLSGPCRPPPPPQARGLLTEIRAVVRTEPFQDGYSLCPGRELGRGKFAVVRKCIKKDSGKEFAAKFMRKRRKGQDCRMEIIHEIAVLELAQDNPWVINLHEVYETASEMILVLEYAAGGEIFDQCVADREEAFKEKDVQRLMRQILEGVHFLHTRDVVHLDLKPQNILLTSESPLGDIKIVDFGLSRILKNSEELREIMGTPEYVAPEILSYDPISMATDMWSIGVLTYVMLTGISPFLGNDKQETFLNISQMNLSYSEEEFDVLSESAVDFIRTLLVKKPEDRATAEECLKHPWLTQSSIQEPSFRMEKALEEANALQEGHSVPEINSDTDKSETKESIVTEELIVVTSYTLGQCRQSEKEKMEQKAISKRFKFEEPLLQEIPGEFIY

A further assay deals with MELK (Homo sapiens, UniProt Q14680).
Chain of MELK (Q14680 whole entry): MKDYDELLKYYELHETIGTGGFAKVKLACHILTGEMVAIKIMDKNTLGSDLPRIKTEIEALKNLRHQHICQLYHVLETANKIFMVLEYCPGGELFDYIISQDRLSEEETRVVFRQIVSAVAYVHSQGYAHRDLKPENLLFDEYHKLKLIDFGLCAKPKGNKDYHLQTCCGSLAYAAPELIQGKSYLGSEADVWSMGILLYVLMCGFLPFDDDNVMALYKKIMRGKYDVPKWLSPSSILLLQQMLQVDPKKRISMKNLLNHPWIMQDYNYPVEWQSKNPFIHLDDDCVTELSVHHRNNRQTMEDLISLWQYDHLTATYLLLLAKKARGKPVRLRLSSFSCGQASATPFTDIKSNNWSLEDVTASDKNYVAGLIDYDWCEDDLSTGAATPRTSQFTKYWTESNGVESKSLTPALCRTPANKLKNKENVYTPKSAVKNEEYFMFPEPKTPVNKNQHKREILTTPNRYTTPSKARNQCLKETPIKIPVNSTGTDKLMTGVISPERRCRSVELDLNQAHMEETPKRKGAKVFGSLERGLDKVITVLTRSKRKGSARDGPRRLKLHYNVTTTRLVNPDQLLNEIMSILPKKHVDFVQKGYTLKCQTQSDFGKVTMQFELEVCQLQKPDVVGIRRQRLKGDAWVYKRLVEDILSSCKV
Another assay concerns the target T3, MAP2K4 (Homo sapiens, UniProt P45985).
T3 sequence (P45985 1-399): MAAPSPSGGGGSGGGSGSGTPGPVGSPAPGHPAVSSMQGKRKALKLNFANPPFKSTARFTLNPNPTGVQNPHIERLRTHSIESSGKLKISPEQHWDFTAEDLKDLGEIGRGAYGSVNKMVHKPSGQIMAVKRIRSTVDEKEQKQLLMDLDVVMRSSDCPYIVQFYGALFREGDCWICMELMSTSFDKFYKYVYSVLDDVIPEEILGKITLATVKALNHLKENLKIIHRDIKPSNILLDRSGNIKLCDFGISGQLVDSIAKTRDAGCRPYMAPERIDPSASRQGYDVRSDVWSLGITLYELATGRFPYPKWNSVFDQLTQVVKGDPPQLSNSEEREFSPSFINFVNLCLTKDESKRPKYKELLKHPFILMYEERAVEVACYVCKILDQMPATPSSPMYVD

The target in the next assay is T4, NEK1 (Homo sapiens, UniProt Q96PY6).
T4 sequence (Q96PY6 1-1258): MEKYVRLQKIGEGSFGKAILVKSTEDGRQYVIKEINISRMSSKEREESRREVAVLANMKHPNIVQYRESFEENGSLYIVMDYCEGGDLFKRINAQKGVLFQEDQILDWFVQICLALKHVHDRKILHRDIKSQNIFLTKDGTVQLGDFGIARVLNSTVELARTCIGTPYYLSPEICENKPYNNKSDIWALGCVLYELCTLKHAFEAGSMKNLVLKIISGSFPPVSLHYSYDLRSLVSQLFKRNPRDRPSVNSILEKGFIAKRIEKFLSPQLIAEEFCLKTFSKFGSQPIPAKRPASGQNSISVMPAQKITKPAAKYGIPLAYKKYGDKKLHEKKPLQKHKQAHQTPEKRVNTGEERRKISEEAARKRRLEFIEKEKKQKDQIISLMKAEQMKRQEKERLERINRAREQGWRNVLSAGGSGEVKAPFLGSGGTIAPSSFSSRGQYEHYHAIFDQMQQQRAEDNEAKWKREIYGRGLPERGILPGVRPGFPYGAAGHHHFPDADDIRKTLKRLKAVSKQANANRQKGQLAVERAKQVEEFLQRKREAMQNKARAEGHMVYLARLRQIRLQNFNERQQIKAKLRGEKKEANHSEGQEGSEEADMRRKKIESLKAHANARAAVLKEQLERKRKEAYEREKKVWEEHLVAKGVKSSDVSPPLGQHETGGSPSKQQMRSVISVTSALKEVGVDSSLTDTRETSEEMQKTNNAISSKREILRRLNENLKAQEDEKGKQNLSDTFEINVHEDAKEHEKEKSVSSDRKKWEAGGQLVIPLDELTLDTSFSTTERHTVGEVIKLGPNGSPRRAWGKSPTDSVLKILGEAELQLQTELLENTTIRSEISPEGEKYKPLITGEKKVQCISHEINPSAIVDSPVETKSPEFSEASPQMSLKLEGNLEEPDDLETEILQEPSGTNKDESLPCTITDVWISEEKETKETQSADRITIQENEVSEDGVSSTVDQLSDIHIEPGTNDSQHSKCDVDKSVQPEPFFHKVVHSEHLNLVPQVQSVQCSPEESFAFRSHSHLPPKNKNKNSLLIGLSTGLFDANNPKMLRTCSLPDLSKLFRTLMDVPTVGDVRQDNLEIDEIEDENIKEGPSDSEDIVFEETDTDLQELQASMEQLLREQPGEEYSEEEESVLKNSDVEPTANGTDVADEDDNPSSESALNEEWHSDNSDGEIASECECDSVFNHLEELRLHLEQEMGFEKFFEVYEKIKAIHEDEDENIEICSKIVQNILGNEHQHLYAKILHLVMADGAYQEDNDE

The next assay has as its target CaMK2b (Homo sapiens, UniProt Q13554).

Where two headings read alike, the source gives them in different places.

Chain of CaMK2b (Q13554 whole entry): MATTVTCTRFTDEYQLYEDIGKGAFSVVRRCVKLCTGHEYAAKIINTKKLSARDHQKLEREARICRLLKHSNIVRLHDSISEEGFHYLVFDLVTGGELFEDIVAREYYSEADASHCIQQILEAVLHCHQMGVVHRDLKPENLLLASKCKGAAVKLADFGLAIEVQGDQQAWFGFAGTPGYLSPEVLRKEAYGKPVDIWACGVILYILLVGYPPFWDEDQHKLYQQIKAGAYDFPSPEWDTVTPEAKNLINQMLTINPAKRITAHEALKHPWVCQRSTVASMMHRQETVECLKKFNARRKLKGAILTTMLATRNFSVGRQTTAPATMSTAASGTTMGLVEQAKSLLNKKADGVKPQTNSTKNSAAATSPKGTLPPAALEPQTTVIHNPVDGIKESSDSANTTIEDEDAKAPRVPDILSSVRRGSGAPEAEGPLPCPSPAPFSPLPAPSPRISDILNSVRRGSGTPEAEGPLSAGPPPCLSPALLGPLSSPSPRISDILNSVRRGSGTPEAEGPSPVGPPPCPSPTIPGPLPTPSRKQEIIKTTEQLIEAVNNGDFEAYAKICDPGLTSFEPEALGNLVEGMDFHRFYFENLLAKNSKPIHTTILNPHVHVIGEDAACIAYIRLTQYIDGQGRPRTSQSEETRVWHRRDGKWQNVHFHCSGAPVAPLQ

Consider `CNc1ncc2cc(-c3ccccc3Cl)c(=O)n(CCCCN)c2n1` [compound 4, 8-(4-Aminobutyl)-6-(2-chlorophenyl)-2-(methylamino)pyrido[2,3-d]pyrimidin-7(8H)-one], for which the ΔTm at 10 µM was -1 °C at NQO2A (read-out: dTm MR21 (4)); 0.1 °C at DRAK1 (read-out: dTm MR21 (4)); 5.7 °C at MELK (read-out: dTm MR21 (4)); 3.3 °C at MAP2K4 (read-out: dTm MR21 (4)); 0.1 °C at NEK1 (read-out: dTm MR21 (4)); -1.1 °C at CaMK2b (read-out: dTm MR21 (4)).

`CNc1ncc2cc(-c3cc(Br)ccc3Cl)c(=O)n(CCCCN)c2n1` [compound 6, 8-(4-Aminobutyl)-6-(5-bromo-2-chlorophenyl)-2-(methylamino)pyrido[2,3-d]pyrimidin-7(8H)-one]: the ΔTm at 10 µM was 0 °C at NQO2A (read-out: dTm 6); -0.1 °C on DRAK1 (read-out: dTm 6); 2.5 °C at MAP2K4 (read-out: dTm 6); -0.3 °C at NEK1 (read-out: dTm 6); 0.1 °C at CaMK2b (read-out: dTm 6).

For `CNc1ncc2cc(-c3ccc(-c4cccc(C)n4)cc3Cl)c(=O)n(CC3OCC(N)CO3)c2n1` (stereo not shown) [compound 2, G-5555], the “dTm G-5555 (2)” value is -0.7 °C at DRAK1 (10 µM, binder); 8.4 °C on MELK (10 µM, binder); 6.4 °C at MAP2K4 (10 µM, binder); -2.2 °C on NEK1 (10 µM, binder); -1.7 °C at CaMK2b (10 µM, binder).

Regarding `CNc1ncc2cc(-c3cc(F)ccc3F)c(=O)n(CCCCN)c2n1` [compound 5, 8-(4-Aminobutyl)-6-(2,5-difluorophenyl)-2-(methylamino)pyrido[2,3-d]pyrimidin-7(8H)-one], the ΔTm at 10 µM on NQO2A (read-out: dTm MR22 (5)) was -0.2 °C; at DRAK1 (read-out: dTm MR22 (5)) it was -0.7 °C; at MELK (read-out: dTm MR22 (5)), 3.2 °C; on MAP2K4 (read-out: dTm MR22 (5)), 1.5 °C; at NEK1 (read-out: dTm MR22 (5)) it was 0 °C; at CaMK2b (read-out: dTm MR22 (5)) it was -0.6 °C.

`CNc1ncc2cc(-c3cc(Br)ccc3Cl)c(=O)n(C[C@H]3OC[C@H](N)CO3)c2n1` [compound 7, 8-(((2r,5r)-5-Amino-1,3-dioxan-2-yl)methyl)-6-(5-bromo-2-chlorophenyl)-2-(methylamino)pyrido[2,3-d]pyrimidin-7(8H)-one]: the ΔTm at 10 µM was 0.6 °C on NQO2A (read-out: dTm 7); 0.6 °C at DRAK1 (read-out: dTm 7); 3.6 °C at MELK (read-out: dTm 7); 2.1 °C at MAP2K4 (read-out: dTm 7); 0.1 °C at NEK1 (read-out: dTm 7); 0.2 °C at CaMK2b (read-out: dTm 7).
